Details: Fluid (supercritical or subcritical phases), Coaxial cylinder method

CCC [propane]
Details	thermal conductivity [W/m/K]
371.05 K, 4555 kPa	0.06855
371.05 K, 4560 kPa	0.06824
371.05 K, 4590 kPa	0.06782
371.05 K, 4715 kPa	0.06718
371.05 K, 4720 kPa	0.06705
371.05 K, 4840 kPa	0.06668
371.05 K, 5000 kPa	0.06707
371.05 K, 5200 kPa	0.06747
371.05 K, 5350 kPa	0.06773
371.05 K, 5672 kPa	0.06829
371.05 K, 6100 kPa	0.06917
371.05 K, 6200 kPa	0.06927
371.05 K, 6800 kPa	0.06996
371.05 K, 7500 kPa	0.07147
371.05 K, 8500 kPa	0.07339
371.05 K, 8900 kPa	0.07424
371.05 K, 9500 kPa	0.07498
371.05 K, 11600 kPa	0.07756
371.97 K, 3025 kPa	0.03301
371.97 K, 3070 kPa	0.03313
371.97 K, 3701 kPa	0.03655
371.97 K, 3803 kPa	0.03783
371.97 K, 4286 kPa	0.04983
371.97 K, 4294 kPa	0.05055
371.97 K, 4312 kPa	0.05267
371.97 K, 4324 kPa	0.05459
371.97 K, 4336 kPa	0.05724
371.97 K, 4342 kPa	0.05915
371.97 K, 4348 kPa	0.06124
371.97 K, 4354 kPa	0.06361
371.97 K, 4362 kPa	0.0676
371.97 K, 4366 kPa	0.07025
371.97 K, 4368 kPa	0.07149
371.97 K, 4370 kPa	0.07274
371.97 K, 4374 kPa	0.07488
371.97 K, 4378 kPa	0.07749
371.97 K, 4380 kPa	0.07923
371.97 K, 4382 kPa	0.07986
371.97 K, 4384 kPa	0.08174
371.97 K, 4386 kPa	0.08308
371.97 K, 4388 kPa	0.08481
371.97 K, 4390 kPa	0.08662
371.97 K, 4392 kPa	0.08774
371.97 K, 4394 kPa	0.08968
371.97 K, 4396 kPa	0.09177
371.97 K, 4398 kPa	0.09312
371.97 K, 4400 kPa	0.09429
371.97 K, 4402 kPa	0.09604
371.97 K, 4404 kPa	0.09739
371.97 K, 4406 kPa	0.09807
371.97 K, 4408 kPa	0.09854
371.97 K, 4410 kPa	0.09918
371.97 K, 4412 kPa	0.09961
371.97 K, 4414 kPa	0.09999
371.97 K, 4416 kPa	0.1001
371.97 K, 4418 kPa	0.1001
371.97 K, 4420 kPa	0.09965
371.97 K, 4425 kPa	0.09676
371.97 K, 4430 kPa	0.09369
371.97 K, 4435 kPa	0.09161
371.97 K, 4440 kPa	0.08782
371.97 K, 4445 kPa	0.08423
371.97 K, 4450 kPa	0.08092
371.97 K, 4455 kPa	0.07787
371.97 K, 4460 kPa	0.07642
371.97 K, 4465 kPa	0.07505
371.97 K, 4475 kPa	0.07322
371.97 K, 4490 kPa	0.07226
371.97 K, 4500 kPa	0.07021
371.97 K, 4505 kPa	0.06997
371.97 K, 4530 kPa	0.06877
371.97 K, 4550 kPa	0.06759
371.97 K, 4570 kPa	0.06665
371.97 K, 4650 kPa	0.06636
371.97 K, 4740 kPa	0.06618
371.97 K, 4850 kPa	0.06602
371.97 K, 5200 kPa	0.06643
371.97 K, 5900 kPa	0.06801
371.97 K, 6400 kPa	0.06923
371.97 K, 6800 kPa	0.07002
371.97 K, 7600 kPa	0.07152
371.97 K, 8810 kPa	0.07269
371.97 K, 15100 kPa	0.08067
373.2 K, 3103 kPa	0.03319
373.2 K, 3450 kPa	0.03488
373.2 K, 3780 kPa	0.03746
373.2 K, 3820 kPa	0.03788
373.2 K, 4030 kPa	0.04085
373.2 K, 4060 kPa	0.04149
373.2 K, 4150 kPa	0.04361
373.2 K, 4230 kPa	0.04611
373.2 K, 4270 kPa	0.04756
373.2 K, 4346 kPa	0.05156
373.2 K, 4384 kPa	0.05498
373.2 K, 4404 kPa	0.05788
373.2 K, 4416 kPa	0.05996
373.2 K, 4428 kPa	0.0626
373.2 K, 4436 kPa	0.06499
373.2 K, 4444 kPa	0.06754
373.2 K, 4450 kPa	0.06964
373.2 K, 4452 kPa	0.07037
373.2 K, 4462 kPa	0.07388
373.2 K, 4466 kPa	0.07545
373.2 K, 4470 kPa	0.07719
373.2 K, 4476 kPa	0.07958
373.2 K, 4482 kPa	0.08175
373.2 K, 4484 kPa	0.0824
373.2 K, 4486 kPa	0.08306
373.2 K, 4494 kPa	0.08512
373.2 K, 4496 kPa	0.08547
373.2 K, 4498 kPa	0.08584
373.2 K, 4500 kPa	0.0862
373.2 K, 4502 kPa	0.08638
373.2 K, 4504 kPa	0.08656
373.2 K, 4506 kPa	0.08685
373.2 K, 4508 kPa	0.08693
373.2 K, 4510 kPa	0.0873
373.2 K, 4518 kPa	0.08768
373.2 K, 4524 kPa	0.08658
373.2 K, 4530 kPa	0.08552
373.2 K, 4536 kPa	0.08417
373.2 K, 4544 kPa	0.08185
373.2 K, 4550 kPa	0.07994
373.2 K, 4556 kPa	0.07815
373.2 K, 4564 kPa	0.07643
373.2 K, 4568 kPa	0.07532

Reference: the NIST ThermoML archive (doi:10.1021/je500395f)
